Laboratory results taken from patent US12268682B2, “Anticancer drug FL118 formulation for treatment of human cancer” (CANGET BIOTEKPHARMA, LLC, priority 2019, dated 2025).
Where two headings read alike, the source gives them in different places.

Assays:
MM cell lines = assay: BLI-based cytotoxicity assay using LUC-transduced MM cell lines; parameters: species or system human; settings: two MM cell lines, BMMSCs or HS-5
Procedure: Cell lines and culture: Luciferase (LUC)-transduced MM cell lines RPMI 8226, JJN3, UM9, MM1.s, U266, L363, and OPM-2 were cultured in RPMI 1640 (Life Technologies), supplemented with 10% heat-inactivated HyClone FetalClone I serum (GE Healthcare Life Sciences) and (penicillin, 10.000 U/mL; streptomycin, […]; InVitrogen,). HS-5 was cultured in DMEM (Life Technologies), supplemented with heat-inactivated FBS (Sigma) and antibiotics.

Pgp/MDR1 = Pgp/MDR1 (Homo sapiens, UniProt P08183); settings: cited from earlier work
ABCG2/BCRP = target: T1, ABCG2/BCRP (Homo sapiens, UniProt Q9UNQ0); settings: cited from earlier work
T1 sequence (Q9UNQ0 1-655): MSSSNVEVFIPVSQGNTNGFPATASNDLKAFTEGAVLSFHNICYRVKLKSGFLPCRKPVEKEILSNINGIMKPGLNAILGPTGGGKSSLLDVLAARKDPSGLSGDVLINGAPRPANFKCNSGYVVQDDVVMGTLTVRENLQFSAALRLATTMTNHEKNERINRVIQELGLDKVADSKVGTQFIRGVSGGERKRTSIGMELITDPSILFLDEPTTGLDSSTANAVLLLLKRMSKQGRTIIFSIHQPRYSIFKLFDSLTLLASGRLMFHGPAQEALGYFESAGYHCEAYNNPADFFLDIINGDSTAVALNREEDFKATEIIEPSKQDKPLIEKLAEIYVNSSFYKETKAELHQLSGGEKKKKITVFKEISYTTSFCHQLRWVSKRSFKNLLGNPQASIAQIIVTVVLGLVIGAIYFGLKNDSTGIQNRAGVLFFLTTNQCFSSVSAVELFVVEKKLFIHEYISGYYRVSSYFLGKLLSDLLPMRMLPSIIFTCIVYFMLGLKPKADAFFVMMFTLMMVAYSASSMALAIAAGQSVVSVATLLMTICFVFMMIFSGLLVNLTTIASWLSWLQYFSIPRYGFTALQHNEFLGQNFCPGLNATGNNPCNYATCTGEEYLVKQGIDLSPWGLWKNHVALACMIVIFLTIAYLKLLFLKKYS

MM cells = settings: previously demonstrated; cited from earlier work

Pgp/MDR1, sequence (P08183 whole entry): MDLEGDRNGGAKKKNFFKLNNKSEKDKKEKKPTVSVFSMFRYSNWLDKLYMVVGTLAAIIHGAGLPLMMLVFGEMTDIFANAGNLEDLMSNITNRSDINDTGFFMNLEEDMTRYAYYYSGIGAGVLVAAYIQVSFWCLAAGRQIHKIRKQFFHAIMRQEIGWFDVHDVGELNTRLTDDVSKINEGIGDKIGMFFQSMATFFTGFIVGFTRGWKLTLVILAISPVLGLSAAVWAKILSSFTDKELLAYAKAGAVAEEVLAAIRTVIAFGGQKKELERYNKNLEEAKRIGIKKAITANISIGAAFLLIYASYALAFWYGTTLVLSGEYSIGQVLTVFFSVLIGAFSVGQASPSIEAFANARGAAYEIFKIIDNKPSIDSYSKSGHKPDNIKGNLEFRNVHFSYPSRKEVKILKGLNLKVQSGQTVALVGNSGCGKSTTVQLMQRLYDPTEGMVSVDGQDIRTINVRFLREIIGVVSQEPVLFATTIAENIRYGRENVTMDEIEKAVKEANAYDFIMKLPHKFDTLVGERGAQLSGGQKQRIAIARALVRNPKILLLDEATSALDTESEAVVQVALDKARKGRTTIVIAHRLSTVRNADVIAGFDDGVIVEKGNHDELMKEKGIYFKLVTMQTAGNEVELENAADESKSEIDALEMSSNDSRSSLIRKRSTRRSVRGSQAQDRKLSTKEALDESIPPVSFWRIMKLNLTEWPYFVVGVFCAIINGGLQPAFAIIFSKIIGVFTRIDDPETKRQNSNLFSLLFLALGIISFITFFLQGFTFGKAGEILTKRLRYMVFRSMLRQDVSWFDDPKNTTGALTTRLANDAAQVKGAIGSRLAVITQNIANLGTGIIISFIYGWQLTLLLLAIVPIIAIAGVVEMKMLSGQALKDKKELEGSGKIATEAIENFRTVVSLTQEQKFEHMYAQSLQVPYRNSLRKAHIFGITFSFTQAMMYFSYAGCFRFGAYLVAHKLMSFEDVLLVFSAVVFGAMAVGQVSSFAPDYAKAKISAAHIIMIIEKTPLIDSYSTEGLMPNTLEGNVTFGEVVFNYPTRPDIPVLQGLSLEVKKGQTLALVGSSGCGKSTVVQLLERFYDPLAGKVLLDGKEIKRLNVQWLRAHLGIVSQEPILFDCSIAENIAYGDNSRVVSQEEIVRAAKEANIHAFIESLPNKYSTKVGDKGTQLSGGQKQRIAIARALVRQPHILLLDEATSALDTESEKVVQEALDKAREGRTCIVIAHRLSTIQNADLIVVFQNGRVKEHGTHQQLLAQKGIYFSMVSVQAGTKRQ

CC(C)C[C@H](NC(=O)[C@H](Cc1ccccc1)NC(=O)c1cnccn1)B(O)O [bortezomib, reference compound]
lysis of MM cell lines by the drug upon co-culture with stromal cells (MM cell lines): significantly inhibited

CCc1c2c(nc3ccc(O)cc13)-c1cc3c(c(=O)n1C2)COC(=O)[C@]3(O)CC [SN-38]
substrate of efflux pump Pgp/MDR1 (Pgp/MDR1; not told): substrates | substrate of efflux pump ABCG2/BCRP (ABCG2/BCRP; not told): substrates

COCCn1c2c([n+](Cc3cnccn3)c1C)C(=O)c1ccccc1C2=O [YM155]
modulation of BMMSC-mediated protection against CTLs and daratumumab-dependent ADCC (MM cells): effective modulation

COc1cccc2c1C(=O)c1c(O)c3c(c(O)c1C2=O)C[C@@](O)(C(=O)CO)C[C@@H]3O[C@H]1C[C@H](N)[C@H](O)[C@H](C)O1 [doxorubicin, reference compound]
lysis of MM cell lines by the drug upon co-culture with stromal cells (MM cell lines): significantly inhibited

CCc1c2c(nc3ccc(OC(=O)N4CCC(N5CCCCC5)CC4)cc13)-c1cc3c(c(=O)n1C2)COC(=O)[C@]3(O)CC [irinotecan]
substrate of efflux pump Pgp/MDR1 (Pgp/MDR1): substrates | substrate of efflux pump ABCG2/BCRP (ABCG2/BCRP): substrates

CC[C@@]1(O)C(=O)OCc2c1cc1n(c2=O)Cc2cc3c(CN(C)C)c(O)ccc3nc2-1 [topotecan]
substrate of efflux pump Pgp/MDR1 (Pgp/MDR1): substrates | substrate of efflux pump ABCG2/BCRP (ABCG2/BCRP): substrates
